Data published in US20030219467A1, “Method for the inhibition of methanogensis” (The Board of Regents of the University of Nebraska, priority 2001, published 2003).
In brackets after ≈: the same amount, converted by molar mass. Like-named read-outs stand apart in the source and are kept apart here.

Key:
[1] = system: M. marburgensis; assay: microbe, parasite or virus in culture; format: cell-based; settings: for MIC: read-out: Inhibition of Growth M. marburgensis: concentration of compound which completely inhibited growth; for inhibition of growth of Methanothermobacter marburgensis (figure legend): FIG. 4: 1000 μM A2, 300 μM and 500 μM A4
[2] = target: T1, RFA-P synthase (Archaeoglobus fulgidus, UniProt O28190); assay: biochemical; format: biochemical
T1 sequence (O28190 1-313): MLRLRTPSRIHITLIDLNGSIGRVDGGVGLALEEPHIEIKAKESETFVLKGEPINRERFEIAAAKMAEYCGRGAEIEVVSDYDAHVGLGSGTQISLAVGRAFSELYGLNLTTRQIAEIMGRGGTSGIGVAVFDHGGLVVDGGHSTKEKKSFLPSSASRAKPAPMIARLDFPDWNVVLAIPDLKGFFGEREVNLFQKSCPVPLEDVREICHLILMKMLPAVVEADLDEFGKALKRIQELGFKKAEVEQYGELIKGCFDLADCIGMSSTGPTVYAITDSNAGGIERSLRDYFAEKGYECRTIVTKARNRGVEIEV

[3] = system: Moorella thermoacetica; assay: Inhibition of growth of acetogen Moorella thermoacetica; format: cell-based; settings: FIG. 5
[4] = system: M. marburgensis; format: cell-based
[5] = system: ruminal organisms; assay: Ruminal fluid batch culture (artificial rumen): growth inhibition / methane formation; format: cell-based, steers
[6] = Methanothermobacter marburgensis, H2/CO2-grown, 65° C., OD 580 nm, words refer to 1 millimolar
[7] = inhibition constant, substrates at saturating concentrations, first tested at 1 mM, competitive inhibition fit, read-out: Ki
[8] = Methanothermobacter marburgensis
[9] = total methane over 48 hours, compound at (100), 600 micromoles without inhibitor

Row | SMILES | MIC [1, 6] [µM] | Ki [2, 7] [µM] | other results
1 | CC(C)CCNc1ccc(C(=O)O)cc1 [Compound A24] | 1000 (≈ 207 µg/mL) |  | 
2 | NCc1ccc(B(O)O)cc1 [Compound A2] |  | 140 | inhibition of growth of Methanothermobacter marburgensis (figure legend) [1]: inhibit growth; inhibition of growth of Moorella thermoacetica (figure legend) [3]: inability
3 | Nc1cccc(CC(=O)O)c1 [Compound A43] | 500 (≈ 75.6 µg/mL) |  | 
4 | CCCCOC(=O)c1ccc(NC(C)C)cc1 [Compound A66] | 1000 (≈ 235 µg/mL) | 190 | 
5 | O=C(O)Cc1ccc(O)cc1 [Compound A44] |  |  | Ki [2]: 115 µM
6 | CC(C)Nc1ccc(P(=O)(O)OC(C)C)cc1 [Compound A50] |  |  | MIC [1, 8]: 100 µM (≈ 25.7 µg/mL)
7 | Cc1cc(C(=O)O)ccc1NC(C)C [Compound A16] | 300 (≈ 58 µg/mL) | 23 | 
8 | CC(C)Nc1ccc(C(=O)O)cc1 [Compound A3] | 100 (≈ 17.9 µg/mL) | 9 | Methane Produced [4, 9]: 0.01 μ moles
9 | O=C(O)c1ccc(NCc2ccsc2)cc1 [Compound A28] | 1000 (≈ 233 µg/mL) | 55 | 
10 | CCOP(=O)(O)c1ccc(N)cc1 [Compound A48] |  |  | Ki [2]: 65 µM
11 | CC(C)CNc1ccc(C(=O)O)cc1 [Compound A4] | 500 (≈ 96.6 µg/mL) | 10 | inhibition of RFA-P synthase (figure legend) [2]: inhibit RFA-P synthase; Methane Produced ([4]; total methane over 48 hours, compound at (500), 600 micromoles without inhibitor): 0.02 μ moles; inhibition of growth of Methanothermobacter marburgensis (figure legend) [1]: inhibit growth; inhibition of growth of Moorella thermoacetica (figure legend) [3]: inability
12 | N[C@H]1CC[C@H](C(=O)O)CC1 [Compound B7] | 500 (≈ 71.6 µg/mL) |  | 
13 | O=C(O)[C@H]1CC[C@@H](NCc2ccco2)CC1 [Compound B1] | 0.1 (≈ 0.0223 µg/mL) | 63 | 
14 | CNc1ccc(C(=O)O)cc1 [Compound A56] |  | 145 | 
15 | OCc1ccc([C@@H]2N[C@H](CO)[C@@H](O)[C@H]2O)cc1 [Compound C4] | 1000 (≈ 239 µg/mL) |  | 
16 | O=C(O)c1ccc(NCc2cccs2)cc1 [Compound A27] |  | 72 | 
17 | O=C(O)c1ccc(NCc2ccncc2)cc1 [Compound A36] | 1000 (≈ 228 µg/mL) |  | 
18 | Cc1cccc(CNc2ccc(C(=O)O)cc2)n1 [Compound A34] |  | 19 | 
19 | CCCOC(=O)c1ccc(NC(C)C)cc1 [Compound A65] |  | 130 | 
20 | OB(O)c1ccncc1 [Compound A74] |  | 200 | 
21 | O=C(O)c1ccc(CO)cc1 [Compound A40] |  | 270 | 
22 | CCNc1ccc(C(=O)O)cc1 [4-(ethylamino)benzoate] |  |  | methane production, % of the control level [5]: 2.5%

Row | SMILES | MIC [1, 6] [µM] | Ki [2, 7] [µM] | other results
23 | O=C(O)c1ccc(NCc2ccccn2)cc1 [4-[(2-pyridylmethyl)amino]benzoic acid] |  |  | concentration that completely arrests growth of and methane formation by M. marburgensis [1]: 100 mM; reversal of inhibition by supplementing the medium with pABA ([1]; M. marburgensis): fully reversed
24 | O=C(O)c1ccc(NCc2ccc(O)cc2)cc1 [Compound A32] | 300 (≈ 73 µg/mL) |  | 
25 | Nc1ccc(C(=O)O)cc1O [Compound A38] | 500 (≈ 76.6 µg/mL) |  | 
26 | O=C(O)c1ccc(NCc2ccccn2)cc1 [Compound A33] | 0.1 (≈ 0.0228 µg/mL) | 19 | Methane Produced ([4]; total methane over 48 hours, compound at (0.1), 600 micromoles without inhibitor): 0.08 μ moles
27 | O=C(O)c1ccc(NCc2ccc3ccccc3n2)cc1 [Compound A35] | 1000 (≈ 278 µg/mL) |  | 
28 | CC(Nc1ccc(C(=O)O)cc1)C(F)(F)F (centres unmarked) [Compound A22] |  | 59 | 
29 | NCc1ccc(C(=O)O)cc1 [Compound A7, 4-(aminomethyl)benzoic acid] |  | 75 | inhibition of RFA-P synthase (figure legend) [2]: inhibit RFA-P synthase; Methane Produced [4]: 0.07 μ moles
30 | Nc1ccc(CC(=O)O)cc1 [Compound A9, (4-aminophenyl)acetic acid] |  | 60 | MIC [1, 8]: 1000 µM (≈ 151 µg/mL)
31 | CCCCNc1ccc(C(=O)O)cc1 [Compound A58] |  |  | MIC [1, 8]: 1000 µM (≈ 193 µg/mL)
32 | O=P(O)(O)OC[C@H]1N[C@@H](c2ccccc2)[C@H](O)[C@@H]1O [Compound C1] | 500 (≈ 145 µg/mL) | 30 | 
33 | O=C(O)c1c[nH]cn1 [Compound D3] |  |  | MIC [1, 8]: 1000 µM (≈ 112 µg/mL)
34 | CCCCCCNc1ccc(C(=O)O)cc1 [Compound A21] | 500 (≈ 111 µg/mL) |  | 
35 | O=C(O)c1ccc(NCc2c(F)c(F)c(F)c(F)c2F)cc1 [Compound A30] | 500 (≈ 159 µg/mL) |  | 
36 | O=C(O)c1ccc(NCc2ccco2)cc1 [Compound A6] | 300 (≈ 65.2 µg/mL) | 7.5 | 
37 | O=C(O)c1ccc(NC2CCCC2)cc1 [Compound A25] | 1000 (≈ 205 µg/mL) |  | 
38 | CC(C)Nc1ccc(C(=O)O)cc1 [4-(isopropylamino)benzoic acid] |  |  | inhibition of RFA-P synthase (figure legend) [2]: inhibition of RFA-P synthase; inhibition of methanogen growth (figure legend) ([1]; FIG. 7A: M. marburgensis, 15, 25, 75 and 90 micromoles of compound, OD 580 nm): inhibition of methanogen growth
39 | CCCCOP(=O)(O)c1ccc(NCc2ccccn2)cc1 [Compound A55] |  |  | Ki [2]: 25 µM; MIC [1, 8]: 100 µM (≈ 32 µg/mL)
40 | CC(C)CN[C@H]1CC[C@@H](C(=O)O)CC1 [Compound B3] |  | 44 | 
41 | Nc1ccc(S(=O)(=O)O)cc1 [Compound A12] |  | 7 | 
42 | O=C(O)Cc1ccc(NCc2ccco2)cc1 [Compound A42] | 1000 (≈ 231 µg/mL) |  | 
43 | O=C(O)[C@H]1CC[C@H](NCc2ccco2)CC1 [Compound B2] | 500 (≈ 112 µg/mL) |  | 
44 | O=C(O)c1ccc(NCCO)cc1 [Compound A5] | 300 (≈ 54.4 µg/mL) | 17 | 

Row | SMILES | MIC [1, 6] [µM] | Ki [2, 7] [µM] | other results
45 | Nc1n[nH]c(C(=O)O)n1 [Compound D7] | 1000 (≈ 128 µg/mL) |  | 
46 | Nc1ccc(/C=C/C(=O)O)cc1 [Compound A80] | 500 (≈ 81.6 µg/mL) |  | 
47 | Nc1nc(CC(=O)O)cs1 [Compound D6] | 500 (≈ 79.1 µg/mL) |  | 
48 | CCOC(=O)c1ccc(NC(C)C)cc1 [Compound A11] | 1000 (≈ 207 µg/mL) | 130 | 
49 | CCCNc1ccc(C(=O)O)cc1 [Compound A20] | 600 (≈ 108 µg/mL) | 20 | inhibition of RFA-P synthase (figure legend) [2]: inhibit RFA-P synthase; Methane Produced ([4]; total methane over 48 hours, compound at (600), 600 micromoles without inhibitor): 0.05 μ moles
50 | Nc1ccc(P(=O)(O)O)cc1 [Compound A49] |  |  | Ki [2]: 85 µM
51 | OCc1ccc(B(O)O)cc1 [Compound A15] |  | 9 | MIC [1, 8]: 100 µM (≈ 15.2 µg/mL)
52 | CCNc1ccc(C(=O)O)cc1 [Compound A19] |  |  | Ki [2]: 155 µM; MIC [1, 8]: 300 µM (≈ 49.6 µg/mL)
53 | CC(C)OP(=O)(O)c1ccc(N)cc1 [Compound A13] |  |  | Ki [2]: 15 µM; MIC [1, 8]: 1000 µM (≈ 215 µg/mL)
54 | Cc1cc(S(=O)(=O)O)ccc1N [Compound A45] |  |  | MIC [1, 8]: 500 µM (≈ 93.6 µg/mL)
55 | CC(C)OP(=O)(O)c1ccc(NCc2ccco2)cc1 [Compound A51] |  |  | MIC [1, 8]: 100 µM (≈ 29.5 µg/mL)
56 | O=C(O)c1ccc(NCc2ccoc2)cc1 [Compound A26] | 100 (≈ 21.7 µg/mL) | 84 | Methane Produced [4, 9]: 0.06 μ moles
57 | CCC(C(=O)O)c1ccc(N)cc1 (centres unmarked) [Compound A41] | 500 (≈ 89.6 µg/mL) |  | 
58 | CCCCOP(=O)(O)c1ccc(N)cc1 [Compound A14] |  |  | Ki [2]: 25 µM
59 | O=C(O)c1ccc(NCCO)cc1 [4-(2-hydroxyethylamino)benzoate] |  |  | methane production, % of the control level ([5]; artificial rumen, 9 mM compound): 2.5%
60 | Nc1cc(C(=O)O)ccn1 [Compound A39] | 1000 (≈ 138 µg/mL) |  | 
61 | CC(C)OP(=O)(O)c1ccc(NCc2cccnc2)cc1 [Compound A52] |  |  | MIC [1, 8]: 1000 µM (≈ 306 µg/mL)
62 | O=C(O)c1ccc(NCc2ccccc2O)cc1 [Compound A31] | 1000 (≈ 243 µg/mL) | 705 | 
63 | CCCCOP(=O)(O)c1ccc(NC(C)C)cc1 [Compound A53] |  |  | Ki [2]: 25 µM; MIC [1, 8]: 300 µM (≈ 81.4 µg/mL)
64 | CCOP(=O)(OCC)c1ccc(NCC(C)C)cc1 [Compound A47] |  |  | MIC [1]: 500 µM (≈ 143 µg/mL)
65 | O=C(O)c1ccc(NCc2ccccc2)cc1 [Compound A29] | 500 (≈ 114 µg/mL) | 51 | 
